ChEMBL document CHEMBL1157539, “Thousands of chemical starting points for antimalarial lead identification” (Nature, 2010)

Test system: Plasmodium falciparum
Test: GSK_TCMDC: Inhibition of Plasmodium falciparum 3D7 in whole erythrocytes, using parasite LDH activity as an index of growth.
Type: functional, organism-based
Conditions: Plasmodium falciparum, 3D7

| Structure (SMILES) | XC50 |
| --- | --- |
| CCOC(=O)c1cn(CC)c2cc(N3CCCCCC3)c(F)cc2c1=O | 0.413 µM |
| CCCCn1c(=N)c(C(=O)NCc2cccnc2)cc2c(=O)n3cccc(C)c3nc21 | 0.745 µM |
| Cc1ccc(OCCCCONC(=O)c2ccccc2)cc1 | 0.145 µM |
| COc1ccc(N2CCN(C(CNC(=O)C3CCCCC3)c3ccc4c(c3)OCO4)CC2)cc1 (stereo not drawn) | 0.566 µM |
| CN(C)c1ccc(-c2ccc(C(=O)NC3CCN(Cc4ccc5c(c4)OCCO5)CC3)s2)cc1 | 1.12 µM |
| O=C(CN1CCN(C(=O)c2ccco2)CC1)Nc1ccccc1Br | 0.558 µM |
| O=C(/C=C/c1ccc(-c2nc3ccc(Cl)cc3[nH]2)cc1)NCc1cccc(F)c1 | 0.64 µM |
| CC(C)c1ccc(OCC(O)CN(C)C(C)C(O)c2ccccc2)c(Br)c1 (stereo not drawn) | 0.815 µM |
| Cn1cncc1CCCN(Cc1ccc(-c2ccc(C(F)(F)F)cc2)cc1)C(=O)Cn1c(CCc2cccc(F)c2F)cc(=O)c2cccnc21 | 1.25 µM |
| COc1ccc2nc(/N=C3\NC(c4ccccn4)(c4ccccn4)C(=O)N3C)[nH]c2c1 | 0.586 µM |
| Cc1cccc2nc(-c3cccc(-c4ccc(NC(=O)c5cnn6cccnc56)cc4)c3)[nH]c12 | 0.211 µM |
| O=C(c1ccc(-c2cccc(-c3nc4cc(F)ccc4[nH]3)c2)cc1)N1CCCCC1CN1CCC(O)C1 (stereo not drawn) | 1.4 µM |
| O=C(NC(CCCN1CCC2(CC1)OCc1ccccc12)c1ccc(Cl)c(Cl)c1)c1cc(C(F)(F)F)cc(C(F)(F)F)c1 (stereo not drawn) | 0.543 µM |
| CC(Oc1ccc(Cl)cc1)C(=O)Nc1cc(C(F)(F)F)ccc1N1CCOCC1 (stereo not drawn) | 0.532 µM |
| NC1=NC2(CCCCC2)N(OCCCCCCc2ccccc2)C(N)=N1 | 0.347 µM |
| CO/C(=C\C=C\c1cc2cc(Cl)c(Cl)cc2[nH]1)C(=O)NCCCN1CCN(c2cccc(Cl)c2)CC1 | 0.73 µM |
| COc1ccc2nccc(N3CCC(NCCNCc4ccc5c(n4)NC(=O)CO5)C3)c2n1 (stereo not drawn) | 0.862 µM |
| COc1ccc(NC(=O)/C=C/c2ccc(Cl)c(C(F)(F)F)c2)cc1OCCN(C(C)C)C(C)C | 0.626 µM |
| O=C(Nc1ccc(OC2CCN(Cc3ccc(F)cc3)C2)c(Cl)c1)c1ccco1 (stereo not drawn) | 0.195 µM |

| Structure (SMILES) | XC50 |
| --- | --- |
| CC(C)c1cccc(OCC2CCN(c3ncc(C(=O)Nc4ccccc4)cc3Cl)CC2)c1 | 1.06 µM |
| OCC1CCN(Cc2ccc(-c3ccc(-c4nc5cc(F)ccc5[nH]4)s3)cc2)CC1 | 0.85 µM |
| COc1cc(-n2c(CN3CCCC3)nc3cc(-c4ccc(Cl)cc4)sc3c2=O)ccc1OCCN1CCCC1 | 1.04 µM |
| COC(=O)c1sc(-c2ccc(Cl)cc2)cc1N(CCCN1CCC(N2CCCCC2)CC1)S(=O)(=O)c1ccc(C)cc1 | 0.744 µM |
| CC(=O)c1ccc(N2CCN(C(=O)Nc3ccc(Cl)cc3)CC2)cc1 | 0.979 µM |
| O=C(NC1CCN(c2ccnc3cc(Cl)ccc23)C1)c1ccc(F)cc1 (stereo not drawn) | 0.187 µM |
| CN1CCN(CCCN(Cc2cccc(-c3ccc(CNC4CCCC4)cc3)c2)C(=O)CCC2CCCC2)CC1 | 0.761 µM |
| O=S(=O)(c1ccc(NC(S)=NN=Cc2ccccn2)cc1)N1CCCCC1 | 0.72 µM |
| CC(C)(C)CC(=O)Nc1ccc(Nc2cc(-c3ccncc3)cc3ncc(C(N)=O)cc23)cc1 | 0.7 µM |
| COc1ccc(NS(=O)(=O)c2ccccc2Br)cc1N1CCN(C)CC1 | 0.967 µM |
| CC(=O)c1ccccc1OCCSc1nnc(Cc2cccs2)n1C1CCCCC1 | 0.919 µM |
| CS(=O)(=O)c1ccc(CNCc2cccc(-c3cccc(-c4nc5cc(F)ccc5[nH]4)c3)c2)cc1 | 0.559 µM |
| CCCc1cc([C@@H](O)[C@@H]2C[C@@H]3CCN2C[C@@H]3CC)c2ccccc2n1 | 0.433 µM |
| Cc1ccnc(NC(c2ccc(Cl)c([N+](=O)[O-])c2)c2ccc3cccnc3c2O)c1 (stereo not drawn) | 0.927 µM |
| CN1C(C)(C)CC(NC(=O)c2ccc(-c3nc4cc(Cl)c(Cl)cc4[nH]3)cc2)CC1(C)C | 0.73 µM |
| CN(C)S(=O)(=O)c1ccc(Nc2nc(NCCC3C=NC=N3)nc3cc[nH]c(=O)c23)cc1 (stereo not drawn) | 0.929 µM |
| CS(=O)(=O)c1cccc2sc(N3CCN(C(=O)c4ccc([N+](=O)[O-])o4)CC3)nc12 | 1.24 µM |
| NC(=O)c1cccc(Nc2nccc(Nc3ccc(Oc4cccc5ccccc45)cc3)n2)c1 | 1.15 µM |
| O=C(/C=C/c1ccc(Cl)c(Cl)c1)NCCCCCN1CCC(c2cn[nH]c2-c2ccccc2)CC1 | 1.22 µM |
